From patent US11866450B2, “Modulators of Cystic Fibrosis Transmembrane Conductance regulator, pharmaceutical compositions, methods of treatment, and process for making the modulators” (priority 2018, dated 2024) come the findings set out here.

Where two headings read alike, the source gives them in different places.

Series [1] deals with CFTR-mediated chloride transport (Homo sapiens, UniProt P13569). Format: cell-based. As to conditions: enteroid cells incubated with test compound 18-24 hours, acute 10 μM forskolin and 300 nM Compound III; for Max. Activity: % of chloride transport with 3 μM Compound A, 3 μM Compound II and 300 nM acute Compound III triple combination control. In a few lines: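 Human intestinal enteroid cells incubated with compound 18–24 h at 37° C., then membrane potential dye (FLIPR) read 15 min after chloride-free stimulation with 10 μM forskolin, 100 μM IBMX and 300 nM Compound III. AUC expressed as % of triple-combination control (3 μM Compound A, 3 μM Compound II, 300 nM Compound III).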
Chain of CFTR-mediated chloride transport (P13569 whole entry, looked up): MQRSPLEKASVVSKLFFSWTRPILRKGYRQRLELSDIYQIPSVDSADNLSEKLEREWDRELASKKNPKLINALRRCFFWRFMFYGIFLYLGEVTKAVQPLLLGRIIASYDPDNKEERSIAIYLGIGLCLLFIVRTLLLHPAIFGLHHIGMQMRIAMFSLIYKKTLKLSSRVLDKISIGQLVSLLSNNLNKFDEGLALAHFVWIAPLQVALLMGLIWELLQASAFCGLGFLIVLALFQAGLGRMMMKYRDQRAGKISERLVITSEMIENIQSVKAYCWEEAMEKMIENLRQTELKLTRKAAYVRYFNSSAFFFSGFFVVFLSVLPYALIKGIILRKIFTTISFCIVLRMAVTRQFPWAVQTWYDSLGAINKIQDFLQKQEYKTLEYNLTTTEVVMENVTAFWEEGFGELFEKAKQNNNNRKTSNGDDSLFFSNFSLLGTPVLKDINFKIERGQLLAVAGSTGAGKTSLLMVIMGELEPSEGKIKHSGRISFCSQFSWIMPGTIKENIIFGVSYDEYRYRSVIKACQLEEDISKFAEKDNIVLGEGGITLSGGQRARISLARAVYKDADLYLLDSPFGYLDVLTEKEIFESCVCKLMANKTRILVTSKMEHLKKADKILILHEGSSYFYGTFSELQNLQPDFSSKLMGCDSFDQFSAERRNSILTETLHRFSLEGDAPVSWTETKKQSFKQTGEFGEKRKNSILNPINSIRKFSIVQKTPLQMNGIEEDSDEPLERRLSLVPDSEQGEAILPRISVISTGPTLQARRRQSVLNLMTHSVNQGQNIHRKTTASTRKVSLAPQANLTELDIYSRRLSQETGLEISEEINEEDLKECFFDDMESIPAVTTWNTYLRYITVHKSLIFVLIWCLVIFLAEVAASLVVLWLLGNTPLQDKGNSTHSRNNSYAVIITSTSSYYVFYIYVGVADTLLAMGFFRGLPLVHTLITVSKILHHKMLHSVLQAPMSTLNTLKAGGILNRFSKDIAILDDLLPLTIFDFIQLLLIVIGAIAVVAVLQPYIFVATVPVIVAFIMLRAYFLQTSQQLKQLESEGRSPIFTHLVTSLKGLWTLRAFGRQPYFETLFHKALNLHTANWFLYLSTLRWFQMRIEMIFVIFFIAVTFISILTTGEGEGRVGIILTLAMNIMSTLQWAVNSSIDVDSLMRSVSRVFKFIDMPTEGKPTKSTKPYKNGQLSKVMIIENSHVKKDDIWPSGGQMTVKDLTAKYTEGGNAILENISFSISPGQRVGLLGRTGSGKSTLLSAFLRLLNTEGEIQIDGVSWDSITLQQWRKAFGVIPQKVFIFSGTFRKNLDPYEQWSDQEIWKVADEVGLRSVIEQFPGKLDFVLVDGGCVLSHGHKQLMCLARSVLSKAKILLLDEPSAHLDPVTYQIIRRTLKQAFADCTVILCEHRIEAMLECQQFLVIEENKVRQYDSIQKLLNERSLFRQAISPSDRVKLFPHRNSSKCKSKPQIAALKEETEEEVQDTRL

For series [2] the following is noted: snar bond, DMSO.

On to `CC1(C)CCC2CCCCNc3cccc(n3)S(=O)(=O)NC(=O)c3ccc(-n4ccc(OCCC5(C(F)(F)F)CC5)n4)nc3N21` (stereo not drawn) [Compound 37, 12,12-dimethyl-8-(3-{2-[1-(trifluoromethyl)cyclopropyl]ethoxy}-1H-pyrazol-1-yl)-2λ^6-thia-3,9,11,20,25-pentaazatetracyclo[19.3.1.05,10.011,15]pentacosa-1(24),5,7,9,21(25),22-hexaene-2,2,4-trione], for which, in series [1], the EC50 (usually the midpoint of the concentration-response curve) was under 1 µM and the “Max. Activity” value is listed as “+ (+ is <30%)”. The ring closure, yield after HPLC in series [2] (from CC1(C)CCC(CCCCNc2cccc(S(=O)(=O)NC(=O)c3ccc(-n4ccc(OCCC5(C(F)(F)F)CC5)n4)nc3Cl)n2)N1, 15-membered ring, K2CO3/CsF, 85.3 mM, 150.0 °C) came to 25%.

With `CC1(C)CC2CCCNc3cccc(n3)S(=O)(=O)NC(=O)c3ccc(-n4ccc(O)n4)nc3N1C2` (stereo not drawn) [Compound 38, 8-(3-hydroxy-1H-pyrazol-1-yl)-12,12-dimethyl-2λ^6-thia-3,9,11,18,23-pentaazatetracyclo[17.3.1.111,14.05,10]tetracosa-1(22),5,7,9,19(23),20-hexaene-2,2,4-trione], in series [1], the EC50 is over 3 µM and the “Max. Activity” value was “++ (++ is 30-60%)”. In series [2] (from CC1(C)CC(CCCNc2cccc(S(=O)(=O)NC(=O)c3ccc(-n4ccc(O)n4)nc3Cl)n2)CN1, 15-membered ring, CsF/K2CO3/3A MS, 39.3 mM, 140.0 °C), this molecule returned a ring closure, yield after HPLC of 17%.

On to `CC1(C)CC2CCCNc3cccc(n3)S(=O)(=O)NC(=O)c3ccc(-n4ccc(OCCC(C5CC5)C5CC5)n4)nc3N1C2` (stereo not drawn) [Compound 43, 8-[3-(3,3-dicyclopropylpropoxy)-1H-pyrazol-1-yl]-12,12-dimethyl-2λ^6-thia-3,9,11,18,23-pentaazatetracyclo[17.3.1.111,14.05,10]tetracosa-1(22),5,7,9,19(23),20-hexaene-2,2,4-trione], for which, in series [1], the EC50 is under 1 µM and the “Max. Activity” value is “+++ (+++ is >60%)”. In series [2] (from CC1(C)CC(CCCNc2cccc(S(=O)(=O)NC(=O)c3ccc(-n4ccc(OCCC(C5CC5)C5CC5)n4)nc3Cl)n2)CN1, 15-membered ring, K2CO3/CsF/3A MS, 26.4 mM, 130.0 °C, 2 steps), this molecule had a ring closure, yield after HPLC of 55%.

Turning to `CC1(C)CC2CN1c1nc(-n3ccc(OCCC4(C(F)(F)F)CC4)n3)ccc1C(=O)NS(=O)(=O)c1cccc(n1)NCCO2` (stereo not drawn) [Compound 69, 12,12-dimethyl-8-(3-{2-[1-(trifluoromethyl)cyclopropyl]ethoxy}-1H-pyrazol-1-yl)-15-oxa-2λ^6-thia-3,9,11,18,23-pentaazatetracyclo[17.3.1.111,14.05,10]tetracosa-1(22),5(10),6,8,19(23),20-hexaene-2,2,4-trione], in series [1], the EC50 was under 1 µM and the “Max. Activity” value is given as “+++ (+++ is >60%)”. In addition, the ring closure, yield after HPLC in series [2] (from CC(C)(C)OC(=O)N1CC(OCCNc2cccc(S(=O)(=O)NC(=O)c3ccc(-n4ccc(OCCC5(C(F)(F)F)CC5)n4)nc3Cl)n2)CC1(C)C, 15-membered ring, HCl (Boc off), K2CO3/CsF/3A MS, 62.3 mM, 150.0 °C, 2 steps) is 61%.

Regarding `Cc1nn2cc1S(=O)(=O)NC(=O)c1ccc(-n3ccc(OCCC4(C(F)(F)F)CC4)n3)nc1N1CC(CCCC2)CC1(C)C` (stereo not drawn) [Compound 71, 12,21,21-trimethyl-4-(3-{2-[1-(trifluoromethyl)cyclopropyl]ethoxy}-1H-pyrazol-1-yl)-10λ^6-thia-1,3,9,13,14-pentaazatetracyclo[17.2.1.111,14.02,7]tricosa-2,4,6,11(23),12-pentaene-8,10,10-trione], in series [1], the EC50 was over 3 µM and the “Max. Activity” value is “+ (+ is <30%)”. The ring closure, yield after HPLC in series [2] (from Cc1nn(CCCCC2CNC(C)(C)C2)cc1S(=O)(=O)NC(=O)c1ccc(-n2ccc(OCCC3(C(F)(F)F)CC3)n2)nc1Cl, 15-membered ring, K2CO3/CsF, 130.1 mM, 150.0 °C) stood at 50%.

For the molecule `CC1(C)C[C@@H]2CCCOc3cccc(c3)S(=O)(=O)NC(=O)c3ccc(-n4ccc(OCCC5(C(F)(F)F)CC5)n4)nc3N1C2` [Compound 77, (14S)-12,12-Dimethyl-8-(3-{2-[1-(trifluoromethyl)cyclopropyl]ethoxy}-1H-pyrazol-1-yl)-18-oxa-2λ^6-thia-3,9,11-triazatetracyclo[17.3.1.111,14.05,10]tetracosa-1(23),5(10),6,8,19,21-hexaene-2,2,4-trione], in series [1], the EC50 was under 1 µM and the “Max. Activity” value is “+++ (+++ is >60%)”. The molecule further displayed a ring closure, yield after HPLC in series [2] (from CC1(C)C[C@H](CCCOc2cccc(S(=O)(=O)NC(=O)c3ccc(-n4ccc(OCCC5(C(F)(F)F)CC5)n4)nc3Cl)c2)CN1, 15-membered ring, K2CO3/CsF/3A MS, 62.9 mM, 150.0 °C, 20.0 h, 2 steps) of 20%.

As for `CC1(C)CC2CCCCc3cccc(n3)S(=O)(=O)NC(=O)c3ccc(-n4ccc(OCCC5(C(F)(F)F)CC5)n4)nc3N1C2` (stereo not drawn) [Compound 78, 12,12-dimethyl-8-(3-{2-[1-(trifluoromethyl)cyclopropyl]ethoxy}-1H-pyrazol-1-yl)-2λ^6-thia-3,9,11,23-tetraazatetracyclo[17.3.1.111,14.05,10]tetracosa-1(23),5,7,9,19,21-hexaene-2,2,4-trione], in series [1], the EC50 was under 1 µM and the “Max. Activity” value is “+++ (+++ is >60%)”. Also, the ring closure, yield after HPLC in series [2] (from CC(C)(C)OC(=O)N1CC(CCCCc2cccc(S(=O)(=O)NC(=O)c3ccc(-n4ccc(OCCC5(C(F)(F)F)CC5)n4)nc3Cl)n2)CC1(C)C, 15-membered ring, HCl (Boc off), K2CO3/CsF/3A MS, 65.0 mM, 150.0 °C, 2 steps) was found to be 37%.

On to `CC1(C)CC2CCCOc3ccc(cn3)S(=O)(=O)NC(=O)c3ccc(-n4ccc(OCCC5(C(F)(F)F)CC5)n4)nc3N1C2` (stereo not drawn) [Compound 90, 12,12-dimethyl-8-(3-{2-[1-(trifluoromethyl)cyclopropyl]ethoxy}-1H-pyrazol-1-yl)-18-oxa-2λ^6-thia-3,9,11,20-tetraazatetracyclo[17.2.2.111,14.05,10]tetracosa-1(21),5(10),6,8,19,22-hexaene-2,2,4-trione], for which, in series [1], the EC50 was under 1 µM and the “Max. Activity” value is on record as “++ (++ is 30-60%)”. Moreover, in series [2] (from CC(C)(C)OC(=O)N1CC(CCCOc2ccc(S(=O)(=O)NC(=O)c3ccc(-n4ccc(OCCC5(C(F)(F)F)CC5)n4)nc3Cl)cn2)CC1(C)C, 16-membered ring, HCl (Boc off), K2CO3/CsF/3A MS, 61.4 mM, 155.0 °C, 2 steps), the ring closure, yield after HPLC came to 7%.

In the case of `CC1(C)CC2CCCNc3cc(ccn3)S(=O)(=O)NC(=O)c3ccc(-n4ccc(OCCC5(C(F)(F)F)CC5)n4)nc3N1C2` (stereo not drawn) [Compound 93, 12,12-dimethyl-8-(3-{2-[1-(trifluoromethyl)cyclopropyl]ethoxy}-1H-pyrazol-1-yl)-2λ^6-thia-3,9,11,18,20-pentaazatetracyclo[17.3.1.111,14.05,10]tetracosa-1(22),5,7,9,19(23),20-hexaene-2,2,4-trione], in series [1], the EC50 was under 1 µM and the “Max. Activity” value is “+++ (+++ is >60%)”. In series [2] (from CC(C)(C)OC(=O)N1CC(CCCNc2cc(S(=O)(=O)NC(=O)c3ccc(-n4ccc(OCCC5(C(F)(F)F)CC5)n4)nc3Cl)ccn2)CC1(C)C, 15-membered ring, TFA (Boc off), CsF/K2CO3/3A MS, 26.0 mM, 130.0 °C, 2 steps), this molecule gave a ring closure, yield after HPLC of 30%.

Regarding `Cc1ccc2nc1OCCC[C@@H]1CN(c3nc(-n4ccc(OCCC5(C(F)(F)F)CC5)n4)ccc3C(=O)NS2(=O)=O)C(C)(C)C1` [Compound 109, (14S)-12,12,20-Trimethyl-8-(3-{2-[1-(trifluoromethyl)cyclopropyl]ethoxy}-1H-pyrazol-1-yl)-18-oxa-2λ^6-thia-3,9,11,23-tetraazatetracyclo[17.3.1.111,14.05,10]tetracosa-1(23),5(10),6,8,19,21-hexaene-2,2,4-trione], in series [1], the EC50 is under 1 µM and the “Max. Activity” value is given as “++ (++ is 30-60%)”. For the same molecule, the ring closure, yield after HPLC in series [2] (from Cc1ccc(S(=O)(=O)NC(=O)c2ccc(-n3ccc(OCCC4(C(F)(F)F)CC4)n3)nc2Cl)nc1OCCC[C@@H]1CN(C(=O)OC(C)(C)C)C(C)(C)C1, 15-membered ring, HCl (Boc off), K2CO3/CsF/3A MS, 62.8 mM, 140.0 °C, 2 steps) amounted to 32%.

For the molecule `Cc1nn2cc1S(=O)(=O)NC(=O)c1ccc(-n3ccc(OCCC4(C(F)(F)F)CC4)n3)nc1N1C[C@@H](CCC2)CC1(C)C` [Compound 112, (18S)-12,20,20-trimethyl-4-(3-{2-[1-(trifluoromethyl)cyclopropyl]ethoxy}-1H-pyrazol-1-yl)-10λ^6-thia-1,3,9,13,14-pentaazatetracyclo[16.2.1.111,14.02,7]docosa-2,4,6,11(22),12-pentaene-8,10,10-trione], in series [1], the EC50 was under 1 µM and the “Max. Activity” value was “++ (++ is 30-60%)”. Moreover, in series [2] (from Cc1nn(CCC[C@@H]2CNC(C)(C)C2)cc1S(=O)(=O)NC(=O)c1ccc(-n2ccc(OCCC3(C(F)(F)F)CC3)n2)nc1Cl, 14-membered ring, K2CO3/CsF, 37.8 mM, 160.0 °C), the ring closure, yield after HPLC came to 26%.

On to `CC1(C)CC2CCCCNc3ccc(nc3)S(=O)(=O)NC(=O)c3ccc(-n4ccc(OCCC5(C(F)(F)F)CC5)n4)nc3N1C2` (stereo not drawn) [Compound 123, 12,12-Dimethyl-8-(3-{2-[1-(trifluoromethyl)cyclopropyl]ethoxy}-1H-pyrazol-1-yl)-2λ^6-thia-3,9,11,19,22-pentaazatetracyclo[18.2.2.111,14.05,10]pentacosa-1(22),5(10),6,8,20,23-hexaene-2,2,4-trione], for which, in series [1], the EC50 is under 1 µM and the “Max. Activity” value is listed as “+++ (+++ is >60%)”. The ring closure, yield after HPLC in series [2] (from CC(C)(C)OC(=O)N1CC(CCCCNc2ccc(S(=O)(=O)NC(=O)c3ccc(-n4ccc(OCCC5(C(F)(F)F)CC5)n4)nc3Cl)nc2)CC1(C)C, 17-membered ring, K2CO3/CsF/3A MS, 110.5 mM, 150.0 °C, 2 steps) is 4%.
